Measurements reported in US10829520B2, “Beta-hairpin peptidomimetics” (POLYPHOR AG, priority 2015, dated 2020).
Where a SMILES comes first, the peptide text is derived from it. Bridges are numbered along the chain shown (N, C = ends). Roman numbers before positions name the chains, in order. [ ]: non-standard residue; d: D form. Hyp = O=C(O)[C@@H]1C[C@@H](O)CN1; NMeDab = CN[C@@H](CCN)C(=O)O; dDab = NCC[C@@H](N)C(=O)O; Orn = NCCC[C@H](N)C(=O)O; Dab = NCC[C@H](N)C(=O)O; dAze = O=C(O)[C@H]1CCN1

Assays:
Format in all cases: cell-based
[1] = system: human red blood cells (hRBC); assay: Hemolysis of human red blood cells; settings: red cells of human, 1 h, 100
How it was run: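 Washed fresh human erythrocytes (20% v/v, ~0.9×10^9 cells/mL final) were incubated with peptides at 100 μg/mL for 1 h at 37 °C with shaking. Supernatant OD540 measured; hemolysis expressed as % of 2.5% Triton X-100 lysis, with PBS/0.001% acetic acid as 0%.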

[2] = system: Acinetobacter baumannii 872842; settings: 872842
[3] = system: Klebsiella pneumoniae 968733; settings: 968733
[4] = system: Pseudomonas aeruginosa ATCC 27853; settings: ATCC 27853
How it was run: (§1)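 CLSI broth microdilution in cation-adjusted Mueller-Hinton II broth with 0.002% Polysorbate 80, inoculum appr. 10^6 CFU/mL, peptides in serial two-fold dilutions. MIC (μg/mL) is the lowest concentration with no visible growth after 18-20 hours at 35° C.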

Escherichia coli 926415 = settings: 926415
[5] = system: Klebsiella pneumoniae SSI #3010; settings: SSI #3010
How it was run: as §1

[6] = system: Escherichia coli ATCC 25922; settings: ATCC 25922
How it was run: as §1

[7] = system: Acinetobacter baumannii DSM 30008; settings: DSM 30008
How it was run: as §1

SMILES | Acinetobacter baumannii 872842 MIC [2] [µg/mL] | Klebsiella pneumoniae 968733 MIC [3] [µg/mL] | Pseudomonas aeruginosa ATCC 27853 MIC [4] [µg/mL] | Escherichia coli 926415 MIC (Escherichia coli 926415) [µg/mL] | Klebsiella pneumoniae SSI #3010 MIC [5] [µg/mL] | Escherichia coli ATCC 25922 MIC [6] [µg/mL] | Acinetobacter baumannii DSM 30008 MIC [7] [µg/mL] | Hemolysis at 100 μg/mL [1] [%]
CC(C)C[C@@H]1NC(=O)[C@@H](CC(C)C)NC(=O)[C@H](CCN)NC(=O)[C@@H](NC(=O)[C@H](CCN)NC(=O)[C@@H](NC(=O)[C@H](CCN)N(C)C(=O)CC[C@@H]2NC(=O)[C@H](CCN)NC(=O)[C@H](Cc3ccc(O)cc3)NC(=O)[C@H](CO)NC(=O)[C@H](CC(C)C)NC(=O)[C@@H]3CCCN3C(=O)[C@H]3CCCN3C(=O)[C@H](CO)NC(=O)[C@H]([C@@H](C)O)NC(=O)[C@H](C(C)C)NC(=O)[C@H](CCN)NC(=O)[C@H](Cc3c[nH]c4ccccc34)NC(=O)[C@H](CCN)NC(=O)[C@@H](CCN)NC2=O)[C@@H](C)O)CCNC(=O)[C@H]([C@@H](C)O)NC(=O)[C@H](CCN)NC(=O)[C@H](CCN)NC1=O [Ex. 89] (I: cyclo(LSY[Dab]E[dDab][Dab]W[Dab]VTS[dP]P) / II: [NMeDab]T[Dab][Dab][Dab][dL]L[Dab][Dab]T; amide I:5-II:N; lactam II:4-II:C) | 1 | 0.5 | 0.25 | 1 | 0.25 | 0.125 | 0.125 | 1
CC(C)C[C@@H]1NC(=O)[C@@H](CC(C)C)NC(=O)[C@H](CCN)NC(=O)[C@@H](NC(=O)[C@H](CCN)NC(=O)[C@@H](NC(=O)[C@H](CCN)NC(=O)CC[C@@H]2NC(=O)[C@H](CCN)NC(=O)[C@H](Cc3ccc(O)cc3)NC(=O)[C@H](CO)NC(=O)[C@H](CC(C)C)NC(=O)[C@@H]3CCCN3C(=O)[C@H]3CCCN3C(=O)[C@H](CO)NC(=O)[C@H]([C@@H](C)O)NC(=O)[C@H](C(C)C)NC(=O)[C@H](CCN)NC(=O)[C@H](Cc3c[nH]c4ccccc34)NC(=O)[C@H](CCN)NC(=O)[C@@H](CCN)NC2=O)[C@@H](C)O)CCNC(=O)[C@H]([C@@H](C)O)NC(=O)[C@H](CCN)NC(=O)[C@H](CCN)NC1=O [Ex. 92] (I: cyclo(W[Dab]VTS[dP]PLSY[Dab]E[dDab][Dab]) / II: [Dab]T[Dab][Dab][Dab][dL]L[Dab][Dab]T; amide I:12-II:N; lactam II:4-II:C) | 0.5 | 0.5 | 0.25 | 0.5 | 0.25 | 0.125 | 0.25 | 1
CC(C)C[C@@H]1NC(=O)[C@@H](CC(C)C)NC(=O)[C@H](CCN)NC(=O)[C@@H](NC(=O)[C@H](CCN)NC(=O)[C@@H](NC(=O)[C@H](CCN)NC(=O)CC[C@@H]2NC(=O)CNC(=O)[C@H](CCCN)NC(=O)[C@H](CCN)NC(=O)[C@H](Cc3ccc(O)cc3)NC(=O)[C@H](CO)NC(=O)[C@H](CC(C)C)NC(=O)[C@@H]3CCCN3C(=O)[C@H]3CCCN3C(=O)[C@H](CO)NC(=O)[C@H]([C@@H](C)O)NC(=O)[C@H](C(C)C)NC(=O)[C@H](CCN)NC(=O)[C@H](Cc3c[nH]c4ccccc34)NC2=O)[C@@H](C)O)CCNC(=O)[C@H]([C@@H](C)O)NC(=O)[C@H](CCN)NC(=O)[C@H](CCN)NC1=O [Ex. 94] (I: cyclo(LSY[Dab][Orn]GEW[Dab]VTS[dP]P) / II: [Dab]T[Dab][Dab][Dab][dL]L[Dab][Dab]T; amide I:7-II:N; lactam II:4-II:C) | 0.25 | 0.5 | 0.25 | 1 | 0.125 | 0.0625 | 0.0625 | 1
CC(C)C[C@@H]1NC(=O)[C@@H](CC(C)C)NC(=O)[C@H](CCN)NC(=O)[C@@H](NC(=O)[C@H](CCN)NC(=O)[C@@H](NC(=O)[C@H](CCN)NC(=O)CC[C@@H]2NC(=O)[C@H](CCN)NC(=O)[C@H](Cc3ccc(O)cc3)NC(=O)[C@H](CO)NC(=O)[C@H](CC(C)C)NC(=O)[C@@H]3CCCN3C(=O)[C@H]3CCCN3C(=O)[C@H](CO)NC(=O)[C@H](Cc3ccc(O)cc3)NC(=O)[C@H](C(C)C)NC(=O)[C@H](CCN)NC(=O)[C@H](Cc3c[nH]c4ccccc34)NC(=O)[C@H](CCN)NC(=O)[C@@H](CCN)NC2=O)[C@@H](C)O)CCNC(=O)[C@H]([C@@H](C)O)NC(=O)[C@H](CCN)NC(=O)[C@H](CCN)NC1=O [Ex. 95] (I: cyclo(LSY[Dab]E[dDab][Dab]W[Dab]VYS[dP]P) / II: [Dab]T[Dab][Dab][Dab][dL]L[Dab][Dab]T; amide I:5-II:N; lactam II:4-II:C) | 1 | 1 | 0.5 | 1 | 0.5 | 0.25 | 0.5 | 1

More lines, main results first:

Acinetobacter baumannii 872842 MIC [2] [µg/mL] | Klebsiella pneumoniae 968733 MIC [3] [µg/mL] | Pseudomonas aeruginosa ATCC 27853 MIC [4] [µg/mL] | Escherichia coli 926415 MIC (Escherichia coli 926415) [µg/mL] | Klebsiella pneumoniae SSI #3010 MIC [5] [µg/mL] | Escherichia coli ATCC 25922 MIC [6] [µg/mL] | Acinetobacter baumannii DSM 30008 MIC [7] [µg/mL] | SMILES | Hemolysis at 100 μg/mL [1] [%]
0.25 | 0.25 | 0.25 | 0.25 | 0.125 | 0.125 | 0.125 | CC(C)C[C@@H]1NC(=O)[C@@H](CC(C)C)NC(=O)[C@H](CCN)NC(=O)[C@@H](NC(=O)[C@H](CCN)NC(=O)[C@@H](NC(=O)[C@H](CCN)NC(=O)CC[C@@H]2NC(=O)CNC(=O)[C@H](Cc3ccc(O)cc3)NC(=O)[C@H](CO)NC(=O)[C@H](CC(C)C)NC(=O)[C@@H]3CCCN3C(=O)[C@H]3CCCN3C(=O)[C@H](CO)NC(=O)[C@H]([C@@H](C)O)NC(=O)[C@H](C(C)C)NC(=O)[C@H](CCN)NC(=O)[C@H](Cc3c[nH]c4ccccc34)NC(=O)[C@H](CCN)NC(=O)[C@@H](CCN)NC2=O)[C@@H](C)O)CCNC(=O)[C@H]([C@@H](C)O)NC(=O)[C@H](CCN)NC(=O)[C@H](CCN)NC1=O [Ex. 90] (I: cyclo(LSYGE[dDab][Dab]W[Dab]VTS[dP]P) / II: [Dab]T[Dab][Dab][Dab][dL]L[Dab][Dab]T; amide I:5-II:N; lactam II:4-II:C) | 1
0.5 | 1 | 0.5 | 0.5 | 0.125 | 0.125 | 0.25 | CC(C)C[C@@H]1NC(=O)[C@@H](CC(C)C)NC(=O)[C@H](CCN)NC(=O)[C@@H](NC(=O)[C@H](CCN)NC(=O)[C@@H](NC(=O)[C@H](CCN)NC(=O)CC[C@@H]2NC(=O)[C@H](CCN)NC(=O)[C@H](Cc3ccc(O)cc3)NC(=O)[C@H]([C@@H](C)O)NC(=O)[C@H](CC(C)C)NC(=O)[C@@H]3CCCN3C(=O)[C@H]3CCCN3C(=O)[C@H](CO)NC(=O)[C@H]([C@@H](C)O)NC(=O)[C@H](C(C)C)NC(=O)[C@H](CCN)NC(=O)[C@H](Cc3c[nH]c4ccccc34)NC(=O)[C@H](CCN)NC(=O)[C@@H](CCN)NC2=O)[C@@H](C)O)CCNC(=O)[C@H]([C@@H](C)O)NC(=O)[C@H](CCN)NC(=O)[C@H](CCN)NC1=O [Ex. 91] (I: cyclo(LTY[Dab]E[dDab][Dab]W[Dab]VTS[dP]P) / II: [Dab]T[Dab][Dab][Dab][dL]L[Dab][Dab]T; amide I:5-II:N; lactam II:4-II:C) | 1
1 | 8 | 0.25 | 2 | 0.25 | 0.5 | 2 | CC(C)C[C@@H]1NC(=O)[C@@H](CC(C)C)NC(=O)[C@H](CCN)NC(=O)[C@@H](NC(=O)[C@H](CCN)NC(=O)[C@@H](NC(=O)[C@H](CCN)NC(=O)CC[C@@H]2NC(=O)[C@H](CCN)NC(=O)[C@H](Cc3ccc(O)cc3)NC(=O)[C@H]([C@@H](C)O)NC(=O)[C@H](C(C)C)NC(=O)[C@@H]3C[C@@H](O)CN3C(=O)[C@H]3CCN3C(=O)[C@H](CO)NC(=O)[C@H](CO)NC(=O)[C@H](C(C)C)NC(=O)[C@H](CCN)NC(=O)[C@H](Cc3c[nH]c4ccccc34)NC(=O)[C@H](CCN)NC(=O)[C@@H](CCN)NC2=O)[C@@H](C)O)CCNC(=O)[C@H]([C@@H](C)O)NC(=O)[C@H](CCN)NC(=O)[C@H](CCN)NC1=O [Ex. 93] (I: cyclo([Dab]E[dDab][Dab]W[Dab]VSS[dAze][Hyp]VTY) / II: [Dab]T[Dab][Dab][Dab][dL]L[Dab][Dab]T; amide I:2-II:N; lactam II:4-II:C) | 1
